# Measurements as given in PubChem BioAssay (NCI).
#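 Five compound concentrations were applied to cells in 96-well plates for 48 hours; endpoints were derived by simple linear interpolation of the resulting dose-response curve. GI50: concentration for 50% inhibition of growth. Definition used: TGI = concentration required for complete inhibition of growth.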
# Experiments:
# Assay in all cases: inhibition of tumour cell growth, NCI panel, 48 h
# [1] = tested on: SK-MEL-28 melanoma
# [2] = tested on: M19-MEL melanoma
# [3] = tested on: SK-MEL-2 melanoma
# [4] = tested on: OVCAR-4 ovarian
# [5] = tested on: HOP-62 NSCLC
# [6] = tested on: NCI-H226 lung
# [7] = tested on: DMS 273 small cell lung
# [8] = tested on: MDA-MB-435
# [9] = tested on: HS 578T breast
# [10] = tested on: SNB-78 CNS
Structure (SMILES),TGI [1] [µM],TGI [2] [µM],TGI [3] [µM],TGI [4] [µM],TGI [5] [µM],TGI [6] [µM],TGI [7] [µM],TGI [8] [µM],TGI [9] [µM],TGI [10] [µM],GI50 [8] [µM],GI50 [1] [µM],GI50 [3] [µM],GI50 [4] [µM],GI50 [5] [µM],GI50 [6] [µM],GI50 [9] [µM],GI50 [7] [µM],GI50 [2] [µM],GI50 [10] [µM]
O=C1N[C@@H](O)[C@@H]2ON=C(c3ccccc3)[C@H]12,> 100,> 100,> 100,> 100,> 100,> 100,> 100,,,,,,,,,,,,,
Cc1ccc([N+](=O)[O-])c2c(NCCCN(C)C)ccnc12,> 100,,> 100,> 76.9,> 100,> 100,,45.1,> 100,> 100,,,,,,,,,,
O=C(Nc1ccc(S(=O)(=O)N[C@@H](C(=O)O)c2ccccc2)cc1)c1ccc(F)cc1,> 100,> 100,> 100,> 100,,,> 100,,,,,,,,,,,,,
COc1cc(/C=C/C(=N\NC(=O)c2ccccc2)c2sc(Nc3ccc(Cl)c(Cl)c3)nc2C)ccc1O,> 100,> 100,64.3,> 100,> 100,56,,,,93.2,,,,,,,,,,
CCOC(=O)Cc1nc(/C(C#N)=C/c2ccco2)[nH]c(=O)c1C#N,,> 100,> 100,> 100,> 100,> 100,> 100,,,93.9,,,,,,,,,,
COc1ccc(C2C(N)=NCC2c2ccccn2)cc1 (stereo not drawn),> 100,> 100,> 100,> 100,> 100,> 100,,,,> 100,,,,,,,,,,
O=C1CCn2c([nH]c3cccc4cccc2c43)=N1,> 100,> 100,,> 100,> 100,> 100,> 100,,,> 100,,,,,,,,,,
COc1ccc(/C=C/C(=O)c2sc(-n3nc(-c4ccccc4)cc3-c3ccccc3)nc2C)cc1OC,> 100,> 100,> 100,> 100,> 100,> 100,> 100,,,,,,,,,,,,,
CC1CCCC(C(=O)/C(=C/c2cccc(Cl)c2)C(=O)C(=O)O)C1 (stereo not drawn),> 100,32.7,,> 100,> 100,> 100,> 100,,,> 100,,,,,,,,,,
NC1=NC(=O)C(CC(=O)Nc2ccc([N+](=O)[O-])cc2[N+](=O)[O-])S1 (stereo not drawn),> 100,> 100,> 100,> 100,> 100,> 100,,,,> 100,,,,,,,,,,
CC(=O)[CH-]C(C)=O.CC(=O)[CH-]C(C)=O.N=CC=N.[Sn+2],4.27,,11.2,10.5,33.9,23,8.57,7.43,10.5,,2.59,1.92,3.46,2.62,19.3,9.9,2.66,2.91,,
CC(O)CN1C(=O)NC(Cc2ccccc2)C1=O (stereo not drawn),> 100,,> 100,,86.3,> 100,> 100,,,> 100,,,,,,,,,,
CN1CCN(C)C1c1cccc(C2N(C)CCN2C)c1,> 100,> 100,> 100,> 100,> 100,> 100,> 100,,,> 100,,,,,,,,,,
CC1(C)CCc2cc3c(cc2O1)OCCC3=O,,> 100,,> 100,> 100,> 100,,,,,,,,,,,,,,
CC1(C)OC(=O)C=C([O-])O1.CC1(C)OC(=O)C=C([O-])O1.O=c1c(O)c(-c2ccc([O-])cc2[O-])oc2cc(O)cc(O)c12.[Ti+4],> 100,> 100,67.5,> 100,> 100,> 100,> 100,,,> 100,,,,,,,,32.2,92.1,> 100
O=C1c2ccccc2-c2cccc3ccc(Cc4ccccc4)c1c23,> 100,> 100,> 100,> 100,> 100,,> 100,,,> 100,,,,,,,,,,

Structure (SMILES),TGI [1] [µM],TGI [2] [µM],TGI [3] [µM],TGI [4] [µM],TGI [5] [µM],TGI [6] [µM],TGI [7] [µM],TGI [8] [µM],TGI [9] [µM],TGI [10] [µM],GI50 [8] [µM],GI50 [1] [µM],GI50 [3] [µM],GI50 [4] [µM],GI50 [5] [µM],GI50 [6] [µM],GI50 [9] [µM],GI50 [7] [µM],GI50 [2] [µM],GI50 [10] [µM]
CC/C=C\C/C=C\C1CC(=O)NCCCNCCCCN1 (stereo not drawn),> 100,> 100,> 100,> 100,> 100,> 100,> 100,,,> 100,,,,,,,,,,
CC(=O)OCCOCBr,> 100,> 100,> 100,> 100,> 100,> 100,> 100,,,,,,,,,,,,,
N#Cc1c(N)c(C(=O)O)nn(-c2cccc(C(F)(F)F)c2)c1=O,> 100,> 100,> 100,,,,,,,> 100,,,,,,,,,,
COc1ccc2c(c1)[C@@]13CCN4CC5=CCO[C@H]6CC(=O)N2[C@H]1[C@H]6[C@H]5C[C@H]43,> 100,,> 100,> 100,> 100,30.9,,> 100,> 100,,,,,,,,,,,
Cc1c(C(=O)NN)nnn1-c1ccnc2c(C(F)(F)F)cccc12,> 100,,> 100,89.4,> 100,> 100,,> 100,> 100,,> 100,> 100,> 100,12,> 100,> 100,> 100,,,
COc1ccc(C2C(C#N)=C(N)OC3=C2CCCc2ccc(F)cc23)cc1OC (stereo not drawn),> 62.4,,57.9,68,42.3,43.9,,> 53.3,51.5,,12.9,24.5,21.2,23,21.5,19.6,22,,,
COc1cc(-c2cn(C)c(=O)c(C)c2C)cc(OC)c1CN1CC[C@H](N2CCN(c3ccc(N[C@H]4CCC(=O)NC4=O)cc3F)CC2)C(F)(F)C1,30.9,,29.4,26.9,39.2,29.1,,30,38.5,,13.8,15.6,14.6,12.1,14,13.7,4,,,
COc1ccc(C2=NC(C)(C)CO2)cc1,> 100,> 100,> 100,> 100,> 100,,> 100,,,> 100,,,,,,,,,,
CC(=O)n1c(-c2ccc(Cl)cc2)nc2c(c1=O)C(c1ccc(Cl)cc1)c1sc3c(Cl)cccc3c1O2 (stereo not drawn),3.15,,2.15,4.25,1.76,1.78,,0.463,3.23,,0.167,1.1,0.482,0.696,0.374,0.323,0.396,,,
Oc1c(Br)cc(CN(Cc2cc(Br)c(O)c(Br)c2)C2CCCCC2)cc1Br,> 100,,> 100,> 100,> 100,> 100,,> 100,> 100,,,,,,,,,,,
c1cc[c]([Sn]([S]c2cccc3cccnc23)([c]2ccccc2)[c]2ccccc2)cc1,0.15,0.172,,0.0644,0.368,,0.0344,,,0.0659,,0.0364,,0.0171,0.103,,,0.0173,,0.0203
C=CCOc1c(Br)cc(Br)cc1Br,> 100,,> 100,39.9,> 100,> 100,,66.1,> 100,,3.46,75.5,> 100,13.6,23.5,24.8,17.8,,,
CNC(=O)c1cc(Oc2ccc(NC(=O)Nc3ccc(Cl)c(OC(F)(F)F)c3)c(F)c2)ccn1,4.27,,5.86,> 33.2,29.3,21.4,,10.9,> 33.2,,1.29,1.01,1.03,1.24,2.49,2.5,3.81,,,
Cc1noc(C)c1-c1ccc2[nH]c(=O)n3c2c1OC[C@@H]3c1ccccn1,> 100,,> 100,> 100,> 100,> 100,,> 100,> 31.2,,3,> 25.8,> 89.5,1.03,0.482,2.22,0.254,,,
C[C@H]1CCC/C=C/[C@@H]2C[C@H](N)C[C@H]2[C@H](O)/C=C/C(=O)O1,> 100,,> 100,> 100,> 100,> 100,,> 100,> 100,,> 100,> 100,> 100,> 100,> 100,> 100,> 100,,,
COc1ccc(NC2=C(Br)C(=O)C(C)=C(C)C2=O)cc1,4.76,,28.3,2.97,38.6,27.6,,3.49,57.5,,1.91,2.3,11.4,1.6,15,13,11.8,,,
